Here are results for 14 compounds from ChEMBL document CHEMBL4813956, “Cytotoxic Physalins from Aeroponically Grown Physalis acutifolia” (J Nat Prod, 2021).

Data set [1] deals with MCF7. Nature of the data set: Cytotoxicity against human MCF7 cells assessed as cell growth inhibition up to 10 uM measured after 24 to 72 hrs by MTT assay relative to control. It is filed as functional. The settings on record: dose microM <=10; time 24-72 hrs. (Tetrazolium dyes change colour on reduction, which living cells bring about.)
Data set [2] deals with SF-268. Nature of the data set: Cytotoxicity against human SF-268 cells assessed as cell growth inhibition up to 10 uM measured after 24 to 72 hrs by MTT assay relative to control. It is filed as functional. The settings on record: dose microM <=10; time 24-72 hrs.
Data set [3] deals with NCI-H460. As to the kind of experiment: Cytotoxicity against human NCI-H460 cells assessed as cell growth inhibition up to 10 uM measured after 24 to 72 hrs by MTT assay relative to control. It is filed as functional. The settings on record: dose microM <=10; time 24-72 hrs.
Data set [4] deals with PC-3. Nature of the data set: Cytotoxicity against human PC-3 cells assessed as cell growth inhibition up to 10 uM measured after 24 to 72 hrs by MTT assay relative to control. Format: functional. The settings on record: dose microM <=10; time 24-72 hrs.
The test system of data set [5] is WI-38. Nature of the data set: Cytotoxicity against human WI-38 cells assessed as cell growth inhibition up to 10 uM measured after 24 to 72 hrs by MTT assay relative to control. It is filed as cell-based. The conditions noted are these: time 24-72 hrs.
The test system of data set [6] is WI-38. Nature of the data set: Cytotoxicity against human WI-38 cells assessed as cell growth inhibition measured after 24 to 72 hrs by MTT assay. It is filed as cell-based.
Data set [7] relates to NCI-H460. As to the kind of experiment: Cytotoxicity against human NCI-H460 cells assessed as cell growth inhibition measured after 24 to 72 hrs by MTT assay. It is filed as functional, cell-based.
Data set [8] deals with MCF7. As to the kind of experiment: Cytotoxicity against human MCF7 cells assessed as cell growth inhibition measured after 24 to 72 hrs by MTT assay. It is filed as functional, cell-based.
The test system of data set [9] is PC-3. As to the kind of experiment: Cytotoxicity against human PC-3 cells assessed as cell growth inhibition measured after 24 to 72 hrs by MTT assay. Format: functional, cell-based.
In data set [10] the test system is SF-268. Nature of the data set: Cytotoxicity against human SF-268 cells assessed as cell growth inhibition measured after 24 to 72 hrs by MTT assay. It is filed as functional, cell-based.
Data set [11] deals with WI-38. As to the kind of experiment: Cytotoxicity against human WI-38 cells assessed as cell growth inhibition measured after 24 to 72 hrs in presence of 5beta,6beta-epoxy-2,3-dihydrophysalin C-3beta-O-sulfate by MTT assay. Format: cell-based.
Data set [12] relates to PC-3. As to the kind of experiment: Cytotoxicity against human PC-3 cells assessed as cell growth inhibition measured after 24 to 72 hrs in presence of 5beta,6beta-epoxy-2,3-dihydrophysalin C-3beta-O-sulfate by MTT assay. It is filed as functional, cell-based.
The test system of data set [13] is MCF7. As to the kind of experiment: Cytotoxicity against human MCF7 cells assessed as cell growth inhibition measured after 24 to 72 hrs in presence of 5beta,6beta-epoxy-2,3-dihydrophysalin C-3beta-O-sulfate by MTT assay. Format: functional, cell-based.
The subject of data set [14] is NCI-H460. As to the kind of experiment: Cytotoxicity against human NCI-H460 cells assessed as cell growth inhibition measured after 24 to 72 hrs in presence of 5beta,6beta-epoxy-2,3-dihydrophysalin C-3beta-O-sulfate by MTT assay. Format: functional, cell-based.
Data set [15] has as its system SF-268. As to the kind of experiment: Cytotoxicity against human SF-268 cells assessed as cell growth inhibition measured after 24 to 72 hrs in presence of 5beta,6beta-epoxy-2,3-dihydrophysalin C-3beta-O-sulfate by MTT assay. It is filed as functional, cell-based.
Data set [16] relates to SF-268. As to the kind of experiment: Cytotoxicity against human SF-268 cells assessed as cell growth inhibition measured after 24 to 72 hrs in presence of 2,3-dihydrophysalin F-3beta-O-sulfate by MTT assay. It is filed as functional, cell-based.
In data set [17] the test system is PC-3. Nature of the data set: Cytotoxicity against human PC-3 cells assessed as cell growth inhibition measured after 24 to 72 hrs in presence of 2,3-dihydrophysalin F-3beta-O-sulfate by MTT assay. It is filed as functional, cell-based.
Data set [18] has as its system MCF7. As to the kind of experiment: Cytotoxicity against human MCF7 cells assessed as cell growth inhibition measured after 24 to 72 hrs in presence of 2,3-dihydrophysalin F-3beta-O-sulfate by MTT assay. It is filed as functional, cell-based.
Data set [19] relates to NCI-H460. Nature of the data set: Cytotoxicity against human NCI-H460 cells assessed as cell growth inhibition measured after 24 to 72 hrs in presence of 2,3-dihydrophysalin F-3beta-O-sulfate by MTT assay. It is filed as functional, cell-based.
The test system of data set [20] is WI-38. As to the kind of experiment: Cytotoxicity against human WI-38 cells assessed as cell growth inhibition measured after 24 to 72 hrs in presence of 2,3-dihydrophysalin F-3beta-O-sulfate by MTT assay. Format: cell-based.
In data set [21] the test system is PC-3. Nature of the data set: Cytotoxicity against human PC-3 cells assessed as cell growth inhibition measured after 24 hrs by MTT assay. It is filed as functional, cell-based. The settings on record: PC-3, 24 h.
Data set [22] deals with MCF7. Nature of the data set: Cytotoxicity against human MCF7 cells assessed as cell growth inhibition measured after 24 hrs by MTT assay. Format: functional, cell-based. The conditions noted are these: MCF7, 24 h.

In general, IC50 refers to the concentration that inhibits the measured activity by half.

As to `CO[C@]12CC=CC(=O)[C@]1(C)[C@H]1CC[C@@]3(O)C(=O)O[C@@]4(C)[C@H]5C[C@]6(C)[C@@H](CO[C@@]7(O[C@]34[C@H]6C7=O)[C@@H]1C[C@H]2O)C(=O)O5`, the “growth inhibition (GI)” value with MCF7 [1], with SF-268 [2], in the data set on NCI-H460 [3], in the data set with PC-3 [4] and with WI-38 [5] was under 50% in each case.

`C[C@@]12C[C@H]3OC(=O)[C@@H]1CO[C@]14O[C@]5([C@H]2C1=O)[C@@](O)(CC[C@H]1[C@H]4C[C@@H](O)[C@@]2(Cl)CC=CC(=O)[C@]12C)C(=O)O[C@@]35C`: the IC50 in the data set with WI-38 [6] came to 3900 nM; in the data set on NCI-H460 [7], 600 nM; with MCF7 [8], 2100 nM; with PC-3 [9], 1000 nM; in the data set on SF-268 [10], 800 nM.

Take `C[C@@]12C[C@H]3OC(=O)[C@@H]1CO[C@]14O[C@@]5([C@H]2C1=O)[C@@]3(C)OC(=O)[C@@]5(O)CC[C@H]1[C@H]4C[C@@H](O)[C@@]2(O)CC=CC(=O)[C@]12C`: the “growth inhibition (GI)” value in the data set on MCF7 [1], with SF-268 [2], in the data set on NCI-H460 [3], with PC-3 [4] and with WI-38 [5] was under 50% throughout.

On to `C=C1C(=O)O[C@@H]2C[C@@]1(C)[C@@H]1C(=O)[C@]3(O)O[C@@]14[C@@](O)(CC[C@H]1[C@H]3C[C@@H](O)[C@@]3(Cl)CC=CC(=O)[C@]13C)C(=O)O[C@@]24C`, for which the 50% inhibitory concentration (IC50) in the data set on WI-38 [6] turned out to be 3200 nM; with NCI-H460 [7] it was 600 nM; in the data set on MCF7 [8], 1200 nM; in the data set on PC-3 [9] it was 800 nM; in the data set with SF-268 [10] it was 500 nM.

`C[C@@]12C[C@H]3OC(=O)[C@@H]1CO[C@]14O[C@]5([C@H]2C1=O)[C@@](O)(CC[C@H]1[C@H]4C[C@H]2O[C@]24C[C@@H](OS(=O)(=O)O)CC(=O)[C@]14C)C(=O)O[C@@]35C`: the IC50 in the data set with WI-38 [11] was over 10000 nM; with PC-3 [12], 2600 nM; with MCF7 [13] it was over 7200 nM; in the data set on NCI-H460 [14], 2000 nM; in the data set with SF-268 [15] it was 2400 nM.

Take `C=C1C(=O)O[C@@H]2C[C@@]1(C)[C@@H]1C(=O)[C@]3(O)O[C@@]14[C@@](O)(CC[C@H]1[C@H]3C[C@H]3O[C@]35C[C@@H](OS(=O)(=O)O)CC(=O)[C@]15C)C(=O)O[C@@]24C`: the IC50 in the data set with SF-268 [16] is 2400 nM; in the data set with PC-3 [17] it was 2600 nM; in the data set on MCF7 [18], over 7200 nM; with NCI-H460 [19], 2000 nM; in the data set with WI-38 [20], over 10000 nM.

Turning to `C/C(=C1/C(=O)C[C@H]2[C@@H]3[C@@H]4O[C@@H]4[C@@]4(O)CC=CC(=O)[C@]4(C)[C@H]3CC(=O)[C@]12C)[C@H]1C[C@]2(C)O[C@]2(C)C(=O)O1`, the IC50 is over 10000 nM in the data set with WI-38 [6]; 68000 nM in the data set on PC-3 [21]; over 100000 nM with MCF7 [22]; 6500 nM in the data set with NCI-H460 [7]; over 10000 nM in the data set with MCF7 [8]; 2300 nM in the data set with PC-3 [9]. Besides, the IC50 in the data set with SF-268 [10] was determined as 7200 nM.

Take `CC(=O)O[C@]12O[C@@]34[C@@H](C1=O)[C@]1(C)C[C@@H](OC(=O)[C@H]1C)[C@]3(C)OC(=O)[C@]4(O)CC[C@H]1[C@H]2C[C@H]2O[C@]23CCCC(=O)[C@]13C`: the “growth inhibition (GI)” value with MCF7 [1], with SF-268 [2], in the data set on NCI-H460 [3], in the data set on PC-3 [4] and with WI-38 [5] was under 50% throughout.

Take `CO[C@@H]1CC(=O)[C@]2(C)[C@H]3CC[C@@]4(O)C(=O)O[C@@]5(C)[C@H]6C[C@]7(C)[C@@H](CO[C@@]8(O[C@]45[C@H]7C8=O)[C@@H]3C[C@H]3O[C@]32C1)C(=O)O6`: the “growth inhibition (GI)” value with MCF7 [1], in the data set on SF-268 [2], in the data set on NCI-H460 [3], in the data set on PC-3 [4] and in the data set with WI-38 [5] was under 50% in each case.

`C=C1C(=O)O[C@@H]2C[C@@]1(C)[C@@H]1C(=O)[C@]3(O)O[C@@]14[C@@](O)(CC[C@H]1[C@H]3C[C@H]3O[C@]35CC=CC(=O)[C@]15C)C(=O)O[C@@]24C`: the concentration for half-maximal inhibition (IC50) came out at 3900 nM in the data set with WI-38 [6]; 1200 nM with NCI-H460 [7]; 1700 nM with MCF7 [8]; 1000 nM in the data set on PC-3 [9]; 900 nM in the data set on SF-268 [10].

For `C[C@@H]1C(=O)O[C@@H]2C[C@@]1(C)[C@@H]1C(=O)[C@]3(O)O[C@@]14[C@@](O)(CC[C@H]1[C@H]3C[C@H]3O[C@]35CCCC(=O)[C@]15C)C(=O)O[C@@]24C`, the “growth inhibition (GI)” value in the data set on MCF7 [1], in the data set with SF-268 [2], with NCI-H460 [3], in the data set with PC-3 [4] and in the data set with WI-38 [5] was under 50% each time.

For the compound `C[C@@]12C[C@H]3OC(=O)[C@@H]1CO[C@]14O[C@@]5([C@H]2C1=O)[C@@]3(C)OC(=O)[C@@]5(O)CC[C@H]1[C@H]4C[C@H]2O[C@]23CC=CC(=O)[C@]13C`, the IC50 worked out at 3500 nM with WI-38 [6]; 1000 nM in the data set on NCI-H460 [7]; 600 nM in the data set with MCF7 [8]; 1000 nM in the data set with PC-3 [9]; 500 nM with SF-268 [10].

For `COc1cccc2c1C(=O)c1c(O)c3c(c(O)c1C2=O)C[C@@](O)(C(=O)CO)C[C@@H]3O[C@H]1C[C@H](N)[C@H](O)[C@H](C)O1` [DOXORUBICIN], in the data set with SF-268 [10], the IC50 was 500 nM.

`C[C@]12C(=O)C=CCC1=CC[C@@H]1[C@@H]2CC[C@]2(O)C(=O)O[C@@]3(C)[C@H]4C[C@]5(C)[C@@H](CO[C@@]16O[C@@]32[C@H]5C6=O)C(=O)O4` [PHYSALIN B]: the IC50 in the data set with WI-38 [6] was 3300 nM; in the data set on NCI-H460 [7], 900 nM; in the data set with MCF7 [8] it was 1000 nM; in the data set on PC-3 [9] it was 1000 nM; in the data set on SF-268 [10], 600 nM.
